Test results: patent US9486402B2, “Compositions containing berberine or analogs thereof for treating rosacea or red face related skin disorders” (Derman Biomedicine Co. Ltd, priority 2009, dated 2016)

How the values were obtained:
patients with rosacea = assay: Open-label human clinical study on patients with rosacea; type: in vivo; settings: for overall erythema severity (score 0 to 3): baseline 2.35±0.6; for overall erythema severity (score 0 to 3) / IGA score (7-point, 0 clear to 6 severe): P<0.0001 vs W0; for IGA score (7-point, 0 clear to 6 severe): baseline 4.1±1.3
Procedure: Method: an open-label clinical study was carried out to determine the efficacy of the topical berberine formulations of this invention for the treatment of rosacea and related skin disorders. Patients included in this study were diagnosed by dermatologists to have clinically defined rosacea. All patients were given 0.1% berberine gel twice a day for 6 weeks. At the time points of treatment initiation, and 2-weeks and 6-weeks after treatment, the patients were evaluated for their rosasea symptoms. The patients were not allowed to use other medications, including antibiotics, for their skin conditions. Only oral antihistamines were allowed for relief of pruritus symptoms. To evaluate the efficacy of treatment, the standard grading system for rosacea developed by the National Rosacea Society Expert Committee on the Classification and Staging of Rosacea was used^3. Additionally, the investigator's global assessment (IGA) and overall erythema severity of the patients were scored at week 0, week 2, and week 6 of berberine therapy. The IGA was expressed according to a 7-point scoring system with a range of 0 (clear) to 6 (severe). The severity of overall facial erythema and telangiectasia, respectively, was graded as ‘none’, ‘mild’, ‘moderate’, or ‘severe’ with scores from 0 to 3. The grading system used to assess overall facial erythema severity was described previously^38. Results: a total of 20 patients with rosacea (18 females and 2 males) were enrolled in this study. The mean age of the study population was 43.3 (19-85) years. The mean duration of rosacea prior to berberine treatment was 4 (1-24) years. Among the 20 patients with rosacea, 13 cases were of erythematotelangiectatic type (65%), 7 cases papulopustular type (35%), and […].

[1] = test system: VEGF release from human keratinocytes; assay: Cathelicidin peptide (LL-37)-induced VEGF release from human keratinocytes, ELISA; type: cell-based; settings: 1.25 μg/ml berberine; LL-37 6.4 μM, 16 h; vs cathelicidin peptide with 1% ethanol control; P<0.05
Procedure: (§1) For our in vitro study, berberine (Sigma, St. Louis, Mo., USA) was dissolved in water, methanol, ethanol or dimethyl sulfoxide (DMSO). Normal human keratinocytes (Invitrogen, CA, USA) were grown in EpiLife medium (Invitrogen, CA, USA) supplemented with 0.06 mM Ca^+2, 1% EpiLife defined growth supplement, and 1% penicillin/streptomycin (Invitrogen, CA, USA). Cells were grown at 37° C. in a humidified atmosphere of 5% CO2 and 95% air. The human keratinocytes were cultured to confluence and treated with synthetic cathelicidin peptides (LL-37) (6.4 μM) for 16 h to induce inflammatory response similar to that observed in rosacea. Some of the cathelicidin-treated keratinocyte cultures were co-incubated with berberine of concentrations from 1.25 μg/ml to 12.5 μg/ml. The keratinocytes cultures treated with cathrlicidin or cathrlicidin with 1% ethanol and without berberine were used as negative controls. Supernatants were collected and placed in a sterile 96-well plate for ELISA of interleukin-8 (IL-8), interleukin-1 alpha (IL-1 alpha), and […] (VEGF) in accordance with the manufacturer's instructions (R&D Systems, MN, USA). […]
(§2) FIG. 1. […] Keratinocytes were stimulated by cathelicidin peptide (LL-37), and the release of IL-8 (FIG. 1A), IL-1 alpha (FIG. 1B) and VEGF (FIG. 1C) by the keratinocytes was evaluated by ELISA assay.

[2] = test system: IL-8 release from human keratinocytes; assay: Cathelicidin peptide (LL-37)-induced IL-8 release from human keratinocytes, ELISA; type: cell-based
Procedure: as §1, §2

[3] = test system: IL-1 alpha release from human keratinocytes; assay: Cathelicidin peptide (LL-37)-induced IL-1 alpha release from human keratinocytes, ELISA; type: cell-based; settings: 1.25 μg/ml berberine; LL-37 6.4 μM, 16 h; vs cathelicidin peptide with 1% ethanol control; P<0.05
Procedure: as §1, §2

[4] = test system: cathelicidin-induced lesions; assay: Mouse model of rosacea (subcutaneous cathelicidin peptide), topical treatment; type: in vivo, BALB/c and C57BL/6 mice; settings: topical formulation containing 0.1% berberine twice a day for 2 days; 4th day; vs controls (n=3 each)
Procedure: The animal model of rosacea: the animal model of rosacea was adopted from previous reported^18. Briefly, BALB/c and C57BL/6 mice, shaved 24 h before treatments, were injected subcutaneously on the back with 40 μl of cathelicdin peptide (320 μM) twice a day. Forty-eight hours after the initial injection (four injections in total), erythema and edema were observed on the injected site mimicking the clinical features of rosacea.
In our experiments, cathelicidin-injected mice were treated with or without topical berberine twice a day to observe the effect of berberine on reducing inflammation. […] The cathelicidin-injected mice were then divided into 2 groups, which were treated with berberine (n=3) or not treated with berberine (n=3; as controls), respectively, for a subsequent 2 days. The topical formulation containing 0.1% berberine was applied on the cathelicidin-induced lesions twice a day. The erythematous or inflammatory lesions lasted for more than 7 days in the control group.

[5] = 0.1% berberine gel twice a day, end of treatment (6 weeks), 19 of the 20 patients

Structure (SMILES): COc1ccc2cc3[n+](cc2c1OC)CCc1cc2c(cc1-3)OCO2 [berberine, 5,6-dihydro-9,10-dimethoxybenzo(g)-1,3-benzodioxolo (5,6-a) quinolizinium]
- cases with transient itchy/stinging sensation in the area of topical medication (patients with rosacea; 0.1% berberine gel twice a day for 6 weeks, 2 cases of 20, tolerable without discontinuation): 10%
- serious adverse events (patients with rosacea; 0.1% berberine gel twice a day for 6 weeks, 20 patients): no serious adverse event
- patients with a mild (1) to none (0) erythema rating (patients with rosacea; [5]): 95%
- patients with a mild (2) to clear (0) IGA rating (patients with rosacea; [5]): 95%
- overall erythema severity (score 0 to 3) (patients with rosacea; 0.1% berberine gel twice a day, week 2): 1.5±0.5
- IGA score (7-point, 0 clear to 6 severe) (patients with rosacea; 0.1% berberine gel twice a day, week 2, 20 patients): 2.6±0.9
- overall erythema severity (score 0 to 3) (patients with rosacea; 0.1% berberine gel twice a day, week 6): 0.95±0.4
- IGA score (7-point, 0 clear to 6 severe) (patients with rosacea; 0.1% berberine gel twice a day, week 6, 20 patients): 1.6±0.8
- decrease of the release of VEGF [1]: 29.1%
- inhibition of cathelicidin induced inflammatory response (IL-8, IL-1 alpha, VEGF release) ([2]; 0-12.5 μg/ml, especially when concentration larger than 6.25 μg/ml): significant inhibit cathelicidin induced inflammatory response in a dose-dependent manner
- decrease of the release of IL-8 ([2]; 1.25 μg/ml berberine, LL-37 6.4 μM, 16 h, vs cathelicidin peptide with 1% ethanol control, P<0.05): 31.4%
- decrease of the release of IL-1 alpha [3]: 24.9%
- erythema and vascular dilatation [4]: significant reduced
